Entries after “also recorded” stand apart in the source; their conditions may differ.
Legend:
C57BL/6J mice = assay: Lithiasis of the gallbladder and cholesterol crystals, protocol #2 (Ezetimibe in lithogenic diet, 30 days); assay type: in vivo, mouse
Method: We used mice C57BL/6J susceptible to the development of cholelithiasis originally obtained from Jackson Corp (Bar Harbor, Me., USA) and the colonies were grown in our Laboratory of Gastroenterology, Facultad de Medicina, P. Universidad Católica de Chile. The experimental groups were fed a control chow diet low in cholesterol (<0.02% cholesterol, Prolab RMH3000, PMI Feeds Inc., St. Louis, Mo.) or a lithogenic diet (1.25% cholesterol, 0.5% cholic acid, 15% fat, TD90221, Harlan Teklad, Madison, Wis.) (Amigo et al. 2000). These mice were also treated with Ezetimibe (Zetia®, Merk/Schering Plough) or placebo. In protocol #1 Zetia® tablets were grinded in a porcelain mortar and dissolved in water to be administered to the mice in one daily dose (08 h) of 5 mg/Kg weight by gavage in a final volume of […]; the control groups were given the same volume of water by gavage without the drug. […]
Surgery and sample harvest. […] Afterwards, the common biliary duct is cannulated (biliary fistula) with a P-10 polyethylene cannula to collect bile during 15 minutes, determine bile flow by gravimetry (1 g bile=1 ml; bile flow is expressed as μl/min/g of mouse liver) and for posterior chemical analysis of biliary lipids and glutathione, as specified later. […]

[1] = system: intestinal cholesterol absorption; settings: mammalian models (murine models); cited from earlier work

Structure (SMILES): O=C1[C@H](CC[C@H](O)c2ccc(F)cc2)[C@@H](c2ccc(O)cc2)N1c1ccc(F)cc1 [Ezetimibe, (−)-1-(4-fluorophenyl)-(3R)-[3-(4-fluorophenyl)-(.S)-hydroxypropyl]-(4S)-(4-hydroxyphenyl)-2-azetidinone]
- mice that developed gallstones or cholesterol crystals in the gallbladder (C57BL/6J mice; lithogenic diet plus Ezetimibe 5-6 mg/kg/day in the diet, 30 days, 100% on lithogenic diet alone): 0%
- formation of cholesterol gallstones (C57BL/6J mice; lithogenic diet plus Ezetimibe in the diet, 30 days (FIG. 5)): inhibits; also recorded: completely inhibited
- dosages that effectively inhibit intestinal cholesterol absorption [1]: 0.1-6 mg/kg body weight per day

Reference: US8361999B2, “Methods of treating cholesterol gallstone disease with ezetimibe” (Pontificia Universidad Catolica de Chile, priority 2005, dated 2013)
